Measurements reported in publication PMC9409043, “Serotonin 5-HT6 Receptor Ligands and Butyrylcholinesterase Inhibitors Displaying Antioxidant Activity—Design, Synthesis and Biological Evaluation of Multifunctional Agents against Alzheimer’s Disease” (International Journal of Molecular Sciences, 2022).
Where “and” joins values, the source holds several entries; their conditions need not be identical. Equal values may be shown once.

Experiments:
[1] = target: T1, human recombinant AChE (hAChE) (Homo sapiens, UniProt P22303); assay: biochemical; details: for IC50: mean ± SEM of at least three experiments
T1 construct: purchased Sigma-Aldrich (Steinheim, Germany)
Description: (§1) 5-HT6R binding affinity and cholinesterase (AChE/BuChE) inhibitory activity. […] Their affinities for recombinant human 5-HT6 receptors (h5-HT6R) were tested in a radioligand binding assay and the inhibitory potencies against human recombinant AChE (hAChE) and BuChE isolated from human plasma (hBuChE) in the spectrophotometric Ellman’s assay.
(§2) The assay was based on spectrophotometric Ellman’s method and was performed in 96-well microplates with the reagents purchased from Sigma-Aldrich (Steinheim, Germany) according to the previously described procedure. hBuChE was kindly donated by Vivonics (Bedford, MA, USA). […] After 5 minutes of the enzymatic reaction, the changes in absorbance were measured at 412 nm, using a microplate reader (SPECTROstar Nano; BMG Labtech, Ortenberg, Germany). First, compounds were tested at the screening concentration of 10 µM. Based on the equation 100 − (S/B) × 100 (where S and B were the respective enzyme activities with and without the test sample, respectively) the percentage inhibition of each enzyme for each compound was calculated. […] The IC50 values were calculated using nonlinear regression (GraphPad Prism 5; GraphPad Software, San Diego, CA, USA) by plotting the residual enzyme activities against the applied inhibitor concentration. […] All experiments were performed in triplicate.

[2] = target: T2, BuChE isolated from human plasma (hBuChE) (Homo sapiens, UniProt P06276); assay: biochemical; assay type: biochemical; details: for IC50: mean ± SEM of at least three experiments
T2 construct: BuChE isolated from human plasma (hBuChE); tissue Vivonics (Bedford, MA, USA), donated; host or cells: human plasma
Description: as §1, §2

[3] = ABTS free radical scavenging assay
Text: Antioxidant activity. As mentioned before, oxidative stress is one of the components of AD pathomechanism and is characterised by an imbalance in the production of ROS. One of the mechanisms by which antioxidants reduce the concentration of ROS and therefore prevent or slow the cell damage caused by free radicals is scavenging them. Thus, we tested the scavenging ability of compounds 12–19 in the spectrophotometric ABTS assay that we used before. In this assay, the ability of compounds to scavenge ABTS^• radicals, which are generated from 2,2’-azino-bis(3-ethylbenzothiazoline-6-sulphonic acid) (ABTS), is measured. We tested the compounds at three concentrations: 30, 75 and 150 μM after 5, 30 and 60 min of incubation using Trolox, a water-soluble vitamin E analogue, as a reference (Table S1 in Supporting information).
The spectrophotometric ABTS assay was performed in 96-well microplates with the reagents purchased from Sigma-Aldrich (Steinheim, Germany) according to the previously described procedure. Stock solutions of the tested compounds (6.4 mM) and reagents were prepared in DMSO and water, respectively. 2,2′-Azino-bis(3-ethylbenzothiazoline-6-sulfonic acid) free radical (ABTS^•) was prepared by mixing the stock solution of ABTS (7 mM) and […] (2.45 mM) in ratio 1:1. The mixture was kept in the dark at 4 °C for 16 h. The obtained solution of (ABTS^•) was diluted with water 20 times. Then, the test compound or water or mixture of DMSO/water in the appropriate ratio (0.02 mL) was added to ABTS^• solution (0.18 mL). The three concentrations of the test compounds and Trolox were tested in triplicate: 0.15, 0.075 and 0.03 mM. Changes in absorbance were measured at 734 nm after 5, 30 and 60 min, using a microplate reader (SPECTROstar Nano; BMG Labtech, Ortenberg, Germany). Based on the equation ((A0 − A)/A0) × 100% (where A0 and A were the absorbances without and with the test compound, respectively) the percentage of free radical scavenging activity was calculated. The results are presented as mean ± SD.

human 5-HT6 receptor = target: T3, human 5-HT6 receptor (Homo sapiens, UniProt P50406); assay: 5-HT6 receptor radioligand binding assay ([3H]-LSD, CHO-K1 membranes)
T3 construct: purchased PerkinElmer; host or cells: CHO-K1 cells, stably transfected (membrane preparation)
Description: 5-HT6R binding affinity and cholinesterase (AChE/BuChE) inhibitory activity. We evaluated the pharmacological properties of the final compounds 12–19 in vitro according to the previously described, well-established protocols. Their affinities for recombinant human 5-HT6 receptors (h5-HT6R) were tested in a radioligand binding assay and the inhibitory potencies against human recombinant AChE (hAChE) and BuChE isolated from human plasma (hBuChE) in the spectrophotometric Ellman’s assay. […].
We prepared 10 mM of stock solutions of tested compounds in DMSO. Serial dilutions of compounds were prepared in a 96-well microplate in assay buffers using the automated pipetting system epMotion 5070 (Eppendorf). Each compound was tested in 8 concentrations from 10^−5 to 10^−12 M (final concentration).
The radioligand binding assay was performed using membranes from CHO-K1 cells stably transfected with the human 5-HT6 receptor (PerkinElmer) according to the previously described procedure. All assays were carried out in duplicates. We prepared 50 µL working solution of the tested compounds, 50 µL [^3H]-LSD (final concentration 2.5 nM) and 150 µL diluted membranes (15 µg protein per well) in assay buffer (50 mM Tris, pH 7.4, 10 mM MgCl2, 0.1 mM EDTA) and transferred them to polypropylene 96-well microplates using a 96-well pipetting station Rainin Liquidator (MettlerToledo). Methiothepin (10 μM) was used to define nonspecific binding. The microplate was covered with sealing tape, mixed and incubated for 60 min at 27 °C. The reaction was terminated by rapid filtration through GF/B filter mate presoaked with 0.5% polyethyleneimine for 30 min. Ten rapid washes with 200 µL 50 mM Tris buffer (4 °C, pH 7.4) were performed using the automated harvester system Harvester-96 MACH III FM (Tomtec). The filter mates were dried at 37 °C in a forced air fan incubator and then solid scintillator MeltiLex was melted on filter mates at 90 °C for 5 min. Radioactivity was counted in MicroBeta2 scintillation counter (PerkinElmer). Data were fitted to a one-site curve-fitting equation with Prism 6 (GraphPad Software) and Ki values were estimated from the Cheng−Prusoff equation.

CYP2D6 = target: T4, CYP2D6 (Homo sapiens, UniProt P10635); assay: CYP P450-Glo luminescence assay, CYP2D6; assay type: in vitro ADME; details: human, CYP2D6 enzyme in the luminescent P450-Glo assay (Promega); 0.1 µM
T4 construct: purchased Promega, Madison, WI, USA
Text: Influence on CYP3A4 and CYP2D6 activity. Possible drug–drug interactions (DDIs) are an important issue for elderly patients, who are usually on multiple medications. They may result, among other things, from the interactions (inhibition or activation) of the cytochrome P450 isoenzymes, especially CYP3A4 and CYP2D6, which play the most significant role in drugs’ biotransformation. Therefore, to predict the potential influence of the studied compounds (14, 16 and 19) on the metabolism of other drugs, we used the CYP450 inhibition luminescence assay (Promega). […]. […] […]. […] […].
The influence on CYP 3A4 and 2D6 activity was estimated by respective luminescent CYP P450-Glo™ assay (Promega®, Madison, WI, USA). The compounds were tested in the concentration range of 0.1–25 µM. The results were compared to the respective reference CYP inhibitors: ketoconazole and quinidine.

[4] = Metabolic stability in mouse liver microsomes; assay type: in vitro ADME; details: 2 h, pH 7.4
[5] = Metabolic stability in human liver microsomes; assay type: in vitro ADME
Description: Metabolic stability. […] For detailed results, including UPLC chromatograms and MS spectra, see the Supporting information (Figures S1–S16).
The metabolic stability was evaluated by incubation of compounds with human liver microsomes (Sigma-Aldrich, St. Louis, MO, USA) in 10 mM Tris–HCl buffer (pH 7.4) at 37 °C for 120 min in the presence of NADPH Regeneration System (Promega, Madison, WI, USA). The percentage of the remaining substrate and the most probable metabolic pathways were estimated by UPLC-MS analyses of the reaction mixtures.

T3 sequence (P50406 whole entry): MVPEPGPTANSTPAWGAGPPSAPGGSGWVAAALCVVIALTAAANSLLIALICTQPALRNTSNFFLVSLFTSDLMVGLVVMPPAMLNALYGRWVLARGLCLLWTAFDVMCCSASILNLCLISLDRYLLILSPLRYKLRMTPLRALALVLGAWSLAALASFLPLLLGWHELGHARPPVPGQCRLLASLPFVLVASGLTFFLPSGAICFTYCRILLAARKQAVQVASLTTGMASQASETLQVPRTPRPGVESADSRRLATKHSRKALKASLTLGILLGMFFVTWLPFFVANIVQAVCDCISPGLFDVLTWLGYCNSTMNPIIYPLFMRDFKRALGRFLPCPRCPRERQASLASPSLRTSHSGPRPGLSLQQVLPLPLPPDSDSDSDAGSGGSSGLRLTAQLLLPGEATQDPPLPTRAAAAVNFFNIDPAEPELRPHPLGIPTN
T1 sequence (P22303 32-614): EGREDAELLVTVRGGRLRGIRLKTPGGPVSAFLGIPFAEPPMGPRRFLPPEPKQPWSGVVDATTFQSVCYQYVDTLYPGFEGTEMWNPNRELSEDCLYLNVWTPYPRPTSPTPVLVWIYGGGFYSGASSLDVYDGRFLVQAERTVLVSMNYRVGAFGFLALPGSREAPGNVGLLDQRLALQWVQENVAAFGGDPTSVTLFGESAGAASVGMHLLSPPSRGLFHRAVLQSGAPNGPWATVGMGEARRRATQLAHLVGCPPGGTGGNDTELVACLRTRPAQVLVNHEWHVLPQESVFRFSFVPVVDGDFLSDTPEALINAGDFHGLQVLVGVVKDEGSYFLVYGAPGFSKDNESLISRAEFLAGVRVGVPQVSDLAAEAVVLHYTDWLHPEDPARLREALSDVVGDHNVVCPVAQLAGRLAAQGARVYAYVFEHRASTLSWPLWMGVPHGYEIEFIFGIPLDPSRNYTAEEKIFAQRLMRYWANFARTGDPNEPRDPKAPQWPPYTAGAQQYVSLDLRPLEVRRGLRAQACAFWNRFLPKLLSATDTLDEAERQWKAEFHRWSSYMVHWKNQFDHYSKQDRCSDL
T2 sequence (P06276 29-602): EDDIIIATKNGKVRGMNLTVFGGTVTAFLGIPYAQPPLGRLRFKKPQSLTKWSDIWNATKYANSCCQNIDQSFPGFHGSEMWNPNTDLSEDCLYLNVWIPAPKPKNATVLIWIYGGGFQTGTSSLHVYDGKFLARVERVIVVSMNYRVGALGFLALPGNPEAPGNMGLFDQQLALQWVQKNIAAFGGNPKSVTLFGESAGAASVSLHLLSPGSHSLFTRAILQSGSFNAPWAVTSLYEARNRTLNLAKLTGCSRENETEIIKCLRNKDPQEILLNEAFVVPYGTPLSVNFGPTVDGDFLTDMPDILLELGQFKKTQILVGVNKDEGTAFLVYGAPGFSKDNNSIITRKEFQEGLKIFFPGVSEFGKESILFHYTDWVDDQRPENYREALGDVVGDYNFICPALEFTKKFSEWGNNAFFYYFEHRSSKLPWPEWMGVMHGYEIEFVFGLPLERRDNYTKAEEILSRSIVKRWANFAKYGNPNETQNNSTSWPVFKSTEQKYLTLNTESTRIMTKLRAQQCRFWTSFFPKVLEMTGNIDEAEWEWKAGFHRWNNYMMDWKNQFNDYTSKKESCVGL
T4 sequence (P10635 whole entry): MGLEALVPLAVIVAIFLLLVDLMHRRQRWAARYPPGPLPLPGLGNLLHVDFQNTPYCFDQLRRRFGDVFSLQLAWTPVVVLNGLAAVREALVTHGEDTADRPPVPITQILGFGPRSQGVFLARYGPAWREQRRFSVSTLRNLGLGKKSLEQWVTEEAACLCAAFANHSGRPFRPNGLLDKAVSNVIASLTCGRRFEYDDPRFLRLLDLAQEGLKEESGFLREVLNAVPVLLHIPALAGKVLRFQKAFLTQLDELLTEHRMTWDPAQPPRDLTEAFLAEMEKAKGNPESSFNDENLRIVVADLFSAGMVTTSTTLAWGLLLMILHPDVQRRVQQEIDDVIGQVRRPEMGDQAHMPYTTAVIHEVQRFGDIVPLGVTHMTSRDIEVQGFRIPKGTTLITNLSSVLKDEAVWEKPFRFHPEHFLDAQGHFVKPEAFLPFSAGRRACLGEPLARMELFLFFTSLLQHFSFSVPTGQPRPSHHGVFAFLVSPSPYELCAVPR

Compound	IC50 [1] [nM]	IC50 [2]	% of ABTS• reduction ± SD ([3]; 30 µM, 5 min) [%]	% of ABTS• reduction ± SD ([3]; 30 µM, 30 min) [%]	% of ABTS• reduction ± SD ([3]; 30 µM, 60 min)	% of ABTS• reduction ± SD ([3]; 75 µM, 5 min) [%]	% of ABTS• reduction ± SD ([3]; 75 µM, 30 min) [%]	% of ABTS• reduction ± SD ([3]; 75 µM, 60 min) [%]	% of ABTS• reduction ± SD ([3]; 150 µM, 5 min) [%]	% of ABTS• reduction ± SD ([3]; 150 µM, 30 min) [%]	% of ABTS• reduction ± SD ([3]; 150 µM, 60 min)	Ki (human 5-HT6 receptor) [nM]	inhibition at 0.1 µM (CYP2D6) [%]	MLMs % Left [4] [%]	main metabolic pathway [5]	HLMs % Left ([5]; human, 2 h, pH 7.4) [%]	inhibition at 10 µM ([1]; 10 µM concentration) [%]	inhibition at 10 µM ([2]; 10 µM concentration) [%]
O=S(=O)(c1ccccc1)n1ccc2c(OCCNCC3CCN(Cc4ccccc4)CC3)cccc21 [Compound 12, N-((1-Benzylpiperidin-4-yl)methyl)-2-((1-(phenylsulfonyl)-1H-indol-4-yl)oxy)ethan-1-amine]	3150 ± 81	2300 nM and 2320 nM	8±1	9±0	10±0%	13±0	19±0	24±1	20±3	30±3	39±4%	21 ± 1	–	–	–	–	–	–
O=S(=O)(c1ccccc1)n1ccc2c(OCCNCCC3CCN(Cc4ccccc4)CC3)cccc21 [Compound 13, 2-(1-Benzylpiperidin-4-yl)-N-(2-((1-(phenylsulfonyl)-1H-indol-4-yl)oxy)ethyl)ethan-1-amine]	2260 ± 91	1110 ± 31 nM	5±1	5±1	6±1%	9±1	11±1	13±1	20±0	29±1	34±1%	17 ± 2	–	–	–	–	–	–
O=S(=O)(c1ccccc1)N1CCc2c(OCCNCCCC3CCN(Cc4ccccc4)CC3)cccc21 [Compound 16, 3-(1-Benzylpiperidin-4-yl)-N-(2-((1-(phenylsulfonyl)indolin-4-yl)oxy)ethyl)propan-1-amine]	821 ± 14	487 ± 12 nM	7±0	7±1	7±1%	7±2	9±2	11±3	10±0	19±1	24±1%	598 ± 19	~20	84.48	oxidative deamination	84.40	–	–
O=c1[nH]c2c(OCCNCC3CCN(Cc4ccccc4)CC3)cccc2n1Cc1ccccc1 [Compound 17, 1-Benzyl-4-(2-(((1-benzylpiperidin-4-yl)methyl)amino)ethoxy)-1,3-dihydro-2H-benzo[d]imidazol-2-one]	–	–	8±2	14±3	18±4%	12±2	22±2	27±1	19±2	32±2	39±2%	136 ± 22	–	–	–	–	39.5	44.3
Cc1c(C)c2c(c(C)c1O)CCC(C)(C(=O)O)O2 (stereo not shown) [Trolox, reference compound]	–	–	59±2	59±2	59±2% and 59%	100±0	100±0	100	100±0	100±0	100±0% and 100%	–	–	–	–	–	–	–
